Source: US9980943B2, “Methods of treating muscular dystrophy” (BOARD OF REGENTS OF THE NEVADA SYSTEM OF HIGHER EDUCATION, …, priority 2013, dated 2018)

Key:
Format in all cases: cell-based, mouse
[1] = tested on: α7 integrin (LacZ reporter in α7+/LacZ myotubes); test: Myotube α7 integrin FDG assay (Burkin assay in myotubes, 96-well); conditions: myotubes
[2] = tested on: β-galactosidase in CMV-LacZ C2C12 myotubes; test: CMV-LacZ secondary screen in C2C12 myotubes (β-Gal stabilizing assay); conditions: C2C12 CMV-LacZ myotubes, fold relative to DMSO
Summary of the method: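 β-Gal level was the read-out, measured in a clonal C2C12 line expressing LacZ from a CMV promoter. Dose-response curves used six concentrations, 0.5 μM up to 40 μM, with duplicate points.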

[3] = tested on: α7 integrin (LacZ reporter in α7βgal+/− myoblasts); test: Myoblast α7+/LacZ integrin FDG assay (Burkin assay in myoblasts, 96-well); conditions: α7+/LacZ myoblasts, 96-well
[4] = tested on: β-galactosidase in CMV-LacZ C2C12 myoblasts; test: CMV-LacZ secondary screen in C2C12 myoblasts (β-Gal stabilizing assay); conditions: CMV-LacZ C2C12 myoblasts
Summary of the method: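 First, C2C12 myoblasts were transfected with a linearized CMV-LACZ vector and clonal lines selected by FDG β-gal assay. Then cells were exposed to compounds at 0.5, 1, 5, 10, 20 and 40 μM in 96-well format, two replicates each, and β-gal measured.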

Structure (SMILES) | Burkin Assay in Myotubes, α7 integrin LacZ reporter signal relative to DMSO ([1]; 0.5 uM) | Burkin Assay in Myotubes, α7 integrin LacZ reporter signal relative to DMSO ([1]; 1 uM) | Burkin Assay in Myotubes, α7 integrin LacZ reporter signal relative to DMSO ([1]; 5 uM) | Burkin Assay in Myotubes, α7 integrin LacZ reporter signal relative to DMSO ([1]; 10 uM) | Burkin Assay in Myotubes, α7 integrin LacZ reporter signal relative to DMSO ([1]; 20 uM) | Burkin Assay in Myotubes, α7 integrin LacZ reporter signal relative to DMSO ([1]; 40 uM) | CMV-LACZ in Myotubes, signal relative to DMSO ([2]; 0.5 uM) | CMV-LACZ in Myotubes, signal relative to DMSO ([2]; 1 uM) | CMV-LACZ in Myotubes, signal relative to DMSO ([2]; 5 uM) | CMV-LACZ in Myotubes, signal relative to DMSO ([2]; 10 uM) | CMV-LACZ in Myotubes, signal relative to DMSO ([2]; 20 uM) | CMV-LACZ in Myotubes, signal relative to DMSO ([2]; 40 uM) | Burkin Assay in Myoblasts, signal relative to DMSO ([3]; 0.5 uM) | Burkin Assay in Myoblasts, signal relative to DMSO ([3]; 1 uM) | Burkin Assay in Myoblasts, signal relative to DMSO ([3]; 5 uM) | Burkin Assay in Myoblasts, signal relative to DMSO ([3]; 10 uM) | Burkin Assay in Myoblasts, signal relative to DMSO ([3]; 20 uM) | Burkin Assay in Myoblasts, signal relative to DMSO ([3]; 40 uM) | CMV-LACZ in Myoblasts (β-galactosidase activity relative to DMSO) ([4]; 0.5 uM) | CMV-LACZ in Myoblasts (β-galactosidase activity relative to DMSO) ([4]; 1 uM) | also measured
Cc1cccc(Cn2cnc3c(nnn3Cc3ccc(Cl)cc3)c2=O)c1 [MLS000092785-01] | 1.027 | 0.9662 | 1.02 | 0.8586 | 0.8293 | 0.8225 | 0.9105 | 1.0143 | 1.0185 | 1.0738 | 1.0400 | 1.0500 | 0.9544 | 1.035 | 1.1703 | 0.9343 | 0.7833 | 0.6509 | 0.8600 | 1.1653 | CMV-LACZ in Myoblasts (β-galactosidase activity relative to DMSO) ([4]; 5 uM): 0.9882; CMV-LACZ in Myoblasts (β-galactosidase activity relative to DMSO) ([4]; 10 uM): 0.7351; CMV-LACZ in Myoblasts (β-galactosidase activity relative to DMSO) ([4]; 20 uM): 1.1004; CMV-LACZ in Myoblasts (β-galactosidase activity relative to DMSO) ([4]; 40 uM): 0.3235
C#CC1(O)CCC2C3CCC4=C/C(=N/OCC(=O)NCC(=O)NC(C(=O)O)C(C)C)CC[C@]4(C)C3CC[C@@]21C (stereo partly drawn) [MLS001163859-01] | 1.132 | 1.281 | 1.385 | 1.249 | 1.118 | 1.058 | 0.8756 | 1.1326 | 1.0856 | 1.1727 | 1.0965 | 1.2482 | 0.9786 | 1.09 | 1.055 | 1.024 | 0.9208 | 0.928 | 1.1113 | 1.1684 | CMV-LACZ in Myoblasts (β-galactosidase activity relative to DMSO) ([4]; 5 uM): 1.2009; CMV-LACZ in Myoblasts (β-galactosidase activity relative to DMSO) ([4]; 10 uM): 1.1812; CMV-LACZ in Myoblasts (β-galactosidase activity relative to DMSO) ([4]; 20 uM): 0.7593; CMV-LACZ in Myoblasts (β-galactosidase activity relative to DMSO) ([4]; 40 uM): 0.8104
